Source: patent US20080306268A1, “Crystalline clopidogrel hydrobromide and processes for preparation thereof” (Teva Pharmaceuticals USA, Inc. for Barbados, priority 2004, published 2008)
Structures can show the parent of a compound that is named as a salt. Values belong to the molecule of their own block, whether it stands above or below them.

Experiments:
[1] = opened beaker, room temperature, 4 days
Procedure: Form I may also be prepared by exposing a hygroscopic crystalline clopidogrel hydrobromide to air, preferably for at least about 24 hours. In a preferred embodiment, the clopidogrel hydrobromide exposed is Form II, discussed below.

[2] = pure crystalline hydrate, purity at least about 99% by HPLC
platelet aggregation = settings: 75 mg base equivalent versus 325 mg aspirin; cited from earlier work
[3] = compared with aspirin; cited from earlier work

- crystalline form after exposure to air [1]: giving clopidogrel hydrobromide form I
Compound: COC(=O)[C@H](c1ccccc1Cl)N1CCc2sccc2C1 [Form II, clopidogrel hydrobromide]

- hygroscopicity [2]: only minor hygroscopicity
Compound: COC(=O)[C@H](c1ccccc1Cl)N1CCc2sccc2C1 [clopidogrel hydrobromide hydrate]

Compound: COC(=O)[C@H](c1ccccc1Cl)N1CCc2sccc2C1 [clopidogrel, methyl (+)-(S)-∝-(o-chlorophenyl)-6,7-dihydrothieno[3,2-c]pyridine-5(4H)-acetate]
- effectiveness in blocking platelet aggregation versus aspirin (platelet aggregation): more effective in blocking platelet aggregation than aspirin
- gastrointestinal bleeding versus aspirin [3]: much less gastrointestinal bleeding than aspirin
